Measured values as given in US20090233999A1, “COMPOSITIONS AND THERAPEUTIC METHODS INVOLVING ISOFLAVONES AND ANALOGUES THEREOF” (NOVOGEN RESEARCH PTY LTD, priority 1999, published 2009).

Key:
TNFα = experiment: UVB psoriasis model: cutaneous TNFα by ELISA; assay type: in vivo, mouse; conditions: for suppression of UVB-induced TNF-α level: 40 μM topical
Source text: Inbred, 6-8 weeks of age female C57/BL6, C3H/HeN and Skh:hr-1 (hairless) mice were fed normal stock rodent rations and tap water ad libitum. One day prior to UVB irradiation, the dorsal hair of C57/BL6 and C3H/HeN mice was removed by clipping. A single UVB tube (Phillips TL-40W/12 RS, Eindhoven, The Netherlands) emitting a spectrum of 280-365 nm with a peak emission at 310 nm, was used as the light source for the experiments. The radiation was filtered through a sheet of 0.125 mm cellulose acetate (Grafix Plastics, OH, USA) to block wavelengths below 290 nm. Irradiance was measured with an IL 1500 radiometer (International Light Inc. Newburyport, Mass.) with a UVB detector (SEE 240/UVB) calibrated to the spectral output, and recorded as 1.71×10-4 W/cm2. Groups of three female C57/BL6 and C3H/HeN mice were exposed unrestrained in their cages to 7.24 kJ/m2 UVB radiation equal to 3× the minimal erythemal dose (MED) in these haired mice (fur clipped), an exposure of approximately 70 min. Control mice were clipped of fur in the same manner but were not exposed to UVB irradiation. Groups of 3 Skh:hr-1 mice received 3.59 kJ/m2 of UVB, which is equal to 3×MED on hairless mouse skin. Temperature under the radiation source was stabilised during the exposures with surrounding curtains and an electric fan.
Cpd. 18 was dissolved as a 40 mM stock solution in DMSO, then diluted in a vehicle of propylene glycol-ethanol-water 1:2:1 to provide solutions of 0, 5, 10, 20 and 40 μM with […]. The vehicle control base lotion contained 0.001% DMSO. An aliquot of 100 μL of lotion was applied to the dorsum of three mice immediately, 1 h and 2 h after UVB irradiation for 24 h time point measurements, or once daily immediately after and for up to the next four days following irradiation, for later time points, and was spread evenly using a micropipette. Control mice were restrained in the same manner but were not exposed to UVB irradiation.
To determine the effect of UVB irradiation on cutaneous TNFα expression, groups of three C57/BL6 and C3H/HeN mice were euthanased before and at several time points up to 72 h following UVB irradiation, with and without topical treatment with 20 μM Cpd. 18, and the mid-dorsal skin was excised. […] Colour development was stopped after 30 min with 50 μL of 1M H2SO4, and quantitated spectrophotometrically at 405 nm. […]

P-cadherin = experiment: UVB psoriasis model: immunohistochemical detection of P-cadherin; assay type: in vivo, mouse; conditions: 20 μM topical
Procedure: Groups of three Skh:hr-1 mice were exposed to 3×MEdD of UVB radiation, with and without topical treatment with 20 μM Cpd. 18, and were euthanased before and at 24, 48, 72 and 96 h after irradiation, and mid-dorsal skin samples were taken for histological fixation. The samples were fixed for 6 h in Histochoice (Amresco Solon, Ohio), then processed overnight in an automated formalin-ethanol-based system (Tissue Tek VIP; Bayer Diagnostics, Ferntree Gully, Australia) and embedded into paraffin blocks. Sections of 4 μm were cut onto silane-coated slides, de-waxed and rehydrated using xylene followed by graded aqueous ethanol solutions to PBS. Endogenous peroxidase activity of the sections was quenched with 3% H2O2 in methanol for 10 min at room temperature and washed 3 times with PBS. The sections were then blocked with 10% skim milk in PBS for 40 min at room temperature. […]
The stained sections were examined by light microscopy at 20× magnification and images were captured digitally with a Sony Hyper HAD colour video camera (Sony, Tokyo, Japan). Stain intensity was analysed using a Leica Q500 MC image processing and analysis system (Leica, Cambridge, UK) and semi-quantitated in arbitrary image analysis units as the average intensity of 15 sequential fields across the skin section for each of 3 mice per treatment group. […]

Compound	melting point [°C]	suppression of UVB-induced TNF-α level (TNFα; C3H/HeN, 3 h post-UVB) [%]	suppression of UVB-induced TNF-α level (TNFα; C57/BL6, 3 h post-UVB) [%]	UVB-elevated TNFα levels (TNFα; 5-40 μM, dose-dependent, each mouse strain, 3 h post-UVB)	TNFα expression, lotion alone (TNFα; without UVB)	P-cadherin expression in the skin, treatment alone (P-cadherin; without UVB)	reduction of UVB-induced P-cadherin positive cells (P-cadherin; 72 h, Skh:hr-1)
Cc1c(O)ccc2c1OCC(c1cccc(O)c1)=C2 [Cpd. 14, 3′,7-Dihydroxy-8-methylisoflav-3-ene]	130	–	–	–	–	–	–
COc1ccc(C2=Cc3ccc(O)cc3OC2)cc1OC [Cpd. 18, 7-Hydroxy-3′,4′-dimethoxyisoflav-3-ene]	–	40	45	significantly reduced	no effect	no effect	approximately 50%
